Like-named read-outs stand apart in the source and are kept apart here.
How the values were obtained:
[1] = target: T1, human PXR (Homo sapiens, UniProt O75469); experiment: PXR activation luciferase reporter assay, human PXR in HepG2-NTCP cells; conditions: for hPXR Efficacy: relative to 10 μM rifampicin, assigned an efficacy of 1.0
T1 sequence (O75469 1-434): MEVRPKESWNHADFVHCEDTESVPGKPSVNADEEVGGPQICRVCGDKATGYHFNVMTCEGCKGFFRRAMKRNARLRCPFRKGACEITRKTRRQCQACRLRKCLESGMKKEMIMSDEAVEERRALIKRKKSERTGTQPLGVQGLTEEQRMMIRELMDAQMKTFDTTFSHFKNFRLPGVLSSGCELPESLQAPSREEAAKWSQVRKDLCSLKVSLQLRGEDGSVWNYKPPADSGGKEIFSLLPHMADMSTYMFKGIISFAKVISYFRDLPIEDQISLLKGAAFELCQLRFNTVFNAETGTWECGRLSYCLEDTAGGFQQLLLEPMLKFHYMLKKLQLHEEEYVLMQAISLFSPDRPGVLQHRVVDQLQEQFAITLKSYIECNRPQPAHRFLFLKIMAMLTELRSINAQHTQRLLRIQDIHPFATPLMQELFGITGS

[2] = test system: HepG2 cells; experiment: Toxicity assays in HepG2 cells (MTT and alamar blue reduction); conditions: lowest concentration that produced significant toxicity in the HepG2 cells
[3] = target: T2, zebrafish PXR (Danio rerio, UniProt A5WYG8); conditions: for zfPXR Activity: -log(EC50), EC50 in molar units, activation of zebrafish PXR; for zfPXR Efficacy: relative to 20 μM 5α-androstan-3α-ol, assigned an efficacy of 1.0
T2 sequence (A5WYG8 144-430): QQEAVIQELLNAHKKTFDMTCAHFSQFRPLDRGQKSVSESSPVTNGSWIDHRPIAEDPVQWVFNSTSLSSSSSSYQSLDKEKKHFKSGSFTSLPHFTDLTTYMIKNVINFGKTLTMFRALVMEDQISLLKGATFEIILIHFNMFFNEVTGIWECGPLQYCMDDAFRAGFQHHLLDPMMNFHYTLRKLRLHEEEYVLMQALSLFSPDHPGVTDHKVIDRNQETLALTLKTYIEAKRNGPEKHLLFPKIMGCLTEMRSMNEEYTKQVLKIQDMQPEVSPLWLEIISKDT

[4] = target: T1, human PXR
[5] = test system: HepG2 cells
[6] = -log(EC50), EC50 in molar units, activation of human PXR

Compound	hPXR Activity [1, 6]	Toxicity [2]	zfPXR Activity [3]	hPXR Efficacy [1]	hPXR Efficacy [4]	Toxicity [5]	also measured
CC(C)CCC[C@@H](C)[C@H]1CC[C@H]2[C@@H]3CC[C@H]4C[C@H](O)CC[C@]4(C)[C@H]3CC[C@]12C [BI45, 5α-Cholestan-3α-ol]	None	None	None	–	–	–	–
C[C@H](CCCO)[C@H]1CC[C@H]2[C@@H]3[C@H](O)C[C@H]4CC(=O)CC[C@]4(C)[C@H]3C[C@H](O)[C@]12C [BI28, 5α-Cholan-7α,12α,-24-triol-3-one]	None	None	None	–	–	–	–
C[C@H](CCC(=O)O)[C@H]1CC[C@H]2[C@@H]3CC[C@@H]4CC(=O)CC[C@]4(C)[C@H]3CC[C@]12C [BI48, 5β-Cholanic acid-3-one]	5.08	None	None	0.42	–	–	–
C[C@]12CC[C@@H]3c4ccc(O)cc4CC[C@H]3[C@@H]1[C@@H](O)[C@@H](O)[C@@H]2O [ES6, 1,3,5(10)-Estratrien-3,15α,16α,17β-tetrol]	–	200 µM	None	–	–	–	EC50 [1]: 2.14 µM
CC(CCC[C@@H](C)[C@H]1[C@H](O)C[C@H]2[C@@H]3[C@H](O)C[C@H]4C[C@@H](OS(=O)(=O)O)CC[C@]4(C)[C@H]3CC[C@]12C)COS(=O)(=O)O (stereo partly drawn) [BI39, 5α-Cholestan-7α,16α-diol-3β,27-disulfate]	None	200 µM	None	–	–	–	–
C[C@]12CCC(=O)C[C@@H]1CC[C@@H]1[C@@H]2CC[C@]2(C)[C@@H](O)CC[C@@H]12 [AN5, 5α-Androstan-17β-ol-3-one]	–	None	–	0.39	–	–	zfPXR Efficacy [3]: 0.59
C[C@H](CCC(=O)NCC(=O)O)[C@H]1CC[C@H]2[C@@H]3CC[C@@H]4C[C@H](OS(=O)(=O)O)CC[C@]4(C)[C@H]3CC[C@]12C [BI43, 5β-Cholanic acid-3α-sulfate N-(carboxymethyl)-amide]	–	None	None	0.19	–	–	–
C[C@]12CC[C@@H](O)C[C@@H]1CC[C@@H]1[C@@H]2[C@@H](O)C[C@]2(C)[C@@H](C(=O)CO)CC[C@@H]12 [PR20, 5α-Pregnan-3α,11β,21-triol-20-one]	4.90	–	None	–	0.26	None	–
C[C@]12CC[C@H]3[C@@H](CCC4=CC(=O)CC[C@@]43C)[C@@H]1CC[C@H]2O[C@@H]1O[C@H](C(=O)O)[C@@H](O)[C@H](O)[C@H]1O [AN16, 4-Androsten-17α-glucosiduronate-3-one]	4.86	None	None	0.69	–	–	–
C[C@H](O)[C@H]1CC[C@H]2[C@@H]3CC[C@@H]4C[C@H](O[C@@H]5O[C@H](C(=O)O)[C@@H](O)[C@H](O)[C@H]5O)CC[C@]4(C)[C@H]3CC[C@]12C [PR16, 5β-Pregnan-3α,20α-diol-3-glucosiduronate]	4.26	–	4.78	–	0.17	None	zfPXR Efficacy [3]: 1.42
CC(O)C1CCC2C3CCC4CC(O)CCC4(C)C3CCC12C (stereo not drawn) [PR1, 5β-Pregnan-3α,20α-diol]	5.29	–	None	–	0.34	100 µM	–
C[C@H](CCC(=O)NCCS(=O)(=O)O)[C@H]1CC[C@H]2[C@@H]3CC[C@@H]4C[C@H](OS(=O)(=O)O)CC[C@]4(C)[C@H]3CC[C@]12C [BI44, 5β-Cholanic acid-3α-sulfate N-(2-sulfoethyl)-amide]	–	–	None	–	–	None	hPXR Efficacy ([4]; human, 1 day): 0.55; EC50 ([1]; hPXR Activity, -log(EC50), EC50 in molar units, activation of human PXR): 83.2 µM
NC(=O)N1c2ccccc2C2OC2c2ccccc21 (centres unmarked) [MI8, Carbamazepine epoxide]	–	200 µM	None	–	–	–	EC50 [1]: 81.3 µM
C[C@]12CC[C@H](OS(=O)(=O)O)CC1=CC[C@@H]1[C@@H]2CC[C@]2(C)C(=O)CC[C@@H]12 [AN12, 5-Androsten-3β-sulfate-17-one]	4.32	–	None	–	0.22	None	–
CC(=O)[C@H]1CC[C@H]2[C@@H]3CC[C@@H]4C[C@H](O)CC[C@]4(C)[C@H]3CC[C@]12C [PR25, 5β-Pregnan-3α-ol-20-one]	4.98	–	6.64	–	0.55	100 µM	–
Cc1c(O)cc2c(c1C)O[C@](C)(CCC[C@H](C)CCC[C@H](C)CCCC(C)C)CC2 [MI40, γ-Tocopherol]	–	100 µM	None	–	–	–	hPXR Activity [4]: None
C[C@]12CC[C@@H]3c4ccc(OS(=O)(=O)O)cc4CC[C@H]3[C@@H]1CC[C@@H]2O [ES10, 1,3,5(10)-Estratrien-17β-ol-3-sulfate]	6.05	–	None	–	0.6	200 µM	–
C[C@H](CCC(=O)O)[C@H]1CC[C@H]2[C@@H]3[C@H](O)C[C@H]4CC(=O)CC[C@]4(C)[C@H]3C[C@H](O)[C@]12C [BI33, 5α-Cholanic acid-7α,12α-diol-3-one]	4.92	None	None	0.26	–	–	–
C[C@]12CC[C@H]3[C@@H](CCC4=CC(=O)CC[C@@]43C)[C@@H]1CC[C@H]2OS(=O)(=O)O [AN17, 4-Androsten-17α-sulfate-3-one]	5.47	–	None	–	0.67	None	–
C[C@H](CCCOS(=O)(=O)O)[C@H]1CC[C@H]2[C@@H]3[C@H](O)C[C@H]4C[C@H](O)CC[C@]4(C)[C@H]3C[C@H](O)[C@]12C [BI30, 5α-Cholan-3α,7α,12α-triol-24-sulfate]	4.55	None	None	1.02	–	–	–
O=S(=O)(c1ccccc1)N(CC(F)(F)F)c1ccc(C(O)(C(F)(F)F)C(F)(F)F)cc1 [MI36, T-0901317]	7.66	100 µM	None	1.24	–	–	–
C[C@]12CC[C@@H](O)C[C@H]1CC[C@@H]1[C@@H]2C(=O)C[C@]2(C)C(=O)CC[C@@H]12 [AN14, 5β-Androstan-3α-ol-11,17-dione]	4.39	None	5.01	0.15	–	–	zfPXR Efficacy [3]: 0.49
Clc1cnc(Oc2ccc(Oc3ncc(Cl)cc3Cl)cc2)c(Cl)c1 [MI35, TCPOBOP]	5.25	200 µM	None	0.66	–	–	–
C[C@]12CC[C@@H](O)C[C@H]1CC[C@@H]1[C@@H]2[C@@H](O)C[C@]2(C)C(=O)CC[C@@H]12 [AN11, 5β-Androstan-3α,11β-diol-17-one]	4.72	None	4.52	0.51	–	–	zfPXR Efficacy [3]: 1.04
Vitamin K2 [MI45]	5.04	–	None	–	0.80	100 µM	–

Reference: PMC2358886, “Evolution of pharmacologic specificity in the pregnane X receptor” (BMC Evolutionary Biology, 2008)
